Assay results published in patent publication US11192849B2, “Compounds, compositions, and methods for modulating ferroptosis and treating excitotoxic disorders” (THE TRUSTEES OF COLUMBIA UNIVERSITY IN THE CITY OF NEW YORK, priority 2013, dated 2021).

Key:
[1] = system: primary pre-oligodendrocytes; assay: PVL model: cystine deprivation of developing oligodendrocytes; format: cell-based, rat; conditions: 100 nM, 24 hrs, Alamar Blue
Experimental: Primary pre-oligodendrocytes cultures were prepared from the forebrains of P2 Sprague Dawley (Charles River Laboratory) rat pups using a differential detachment method. Forebrains free of meninges were dissociated with Hanks' Balanced Salt Solution containing 0.01% trypsin and 10 μg/ml DNase, and triturated with DMEM containing 10% heat-inactivated fetal bovine serum and 100 U/ml penicillin and 100 μg/ml streptomycin. Dissociated cells were plated onto poly-D-lysine-coated 75 cm^2 flasks and fed cells every other day for 10-17 days. On day 10 or 17, following 1 hour pre-shake at 200 rpm 37° C. to remove microglia, the flasks were shaken overnight to separate pre-oligodendrocytes from astrocyte layer. The cell suspension was passed through a 20 μm filter and plated onto uncoated (bacteriological) petri dishes for 1 hour in incubator to remove residual microglia/astrocytes. Cell suspension was plated onto poly-D,L-ornithine-coated plates with DMEM, 1×ITS (Life Technologies), 2 mM L-glutamine, 1 mM sodium pyruvate, 0.5% FBS and 0.05% gentamicin (Sigma), 10 ng/ml PDGF and 10 ng/ml FGF (Peprotech), with full medium change the next day and half medium change every other day. […] Fluorescence was assayed in each well using FluoroCount Plate Reader (Packard), with Packard Plate Reader Version 3.0, and 530 nm excitation, and 590 nm emission filters. […]

[2] = system: rat corticostriatal brain slices, medium spiny neurons; assay: Brain slice assay for HD (httN90Q73-transfected corticostriatal slices); format: cell-based; conditions: for number of healthy medium spiny neurons (MSNs): 10 nM, 100 nM and 1 μM, four days
Experimental: 250 μm corticostriatal brain slices were prepared from postnatal day 10 CD Sprague-Dawley rat pups (Charles River) as previously described (Hoffstrom et al., 2010). Brain slice explants were placed in interface culture in 6-well plates using culture medium containing 15% heat-inactivated horse serum, 10 mM KCl, 10 mM HEPES, 100 U/ml penicillin/streptomycin, 1 mM MEM sodium pyruvate, and 1 mM L-glutamine in Neurobasal A (Invitrogen) and maintained in humidified incubators under 5% CO2 at 32 deg. C. A custom-modified biolistic device (Helios Gene Gun; Bio-Rad) was used to transfect the brain slices with a human htt exon-1 expression construct containing a 73 CAG repeat (“HttN90Q73”) in the gWiz backbone (Genlantis) together with a YFP expression construct to visualize transfected neurons. Control brain slices were transfected with gWiz blank vector and YFP at the equivalent DNA amounts. After 4 days of incubation, MSNs were identified by their location within the striatum and by their characteristic dendritic morphology and scored as healthy if expressing bright and continuous YFP labeling throughout, normal-sized cell bodies, and >2 primary dendrites >2 cell bodies long, as previously described^21. Data were expressed as mean numbers of healthy MSNs per striatal region in each brain slice, with statistical significance tested by ANOVA followed by Dunnett's post hoc comparison test at the 0.05 confidence level. […]
Fer-1 attenuates lipid peroxidation and ferroptosis in cancer cells treated with small molecules that block cystine import or glutathione production, as well as cell death in rat organotypic hippocampal brain slices treated with toxic concentrations of glutamate, which also blocks cystine import (Dixon, et al., 2012). […] Four days later, the number of healthy medium spiny neurons (MSNs) was quantified, as previously described (Varma, et al., 2011, Hoffstrom, et al., 2010).

SMILES | protection of oligodendrocytes from cystine deprivation [1] | number of healthy medium spiny neurons (MSNs) [2] | number of healthy MSNs versus controls ([2]; 1 μM)
CCOC(=O)c1ccc(NC2CCCCC2)c(NCc2ccccc2)c1 [SRS11-92, ethyl 3-(benzylamino)-4-(cyclohexylamino)benzoate] | fully protected OLs from cystine deprivation | significant increase in the number of healthy MSNs | 
CCOC(=O)c1ccc(NC2CCCCC2)c(N)c1 [SRS8-28 (Fer-1), ethyl 3-amino-4-(cyclohexylamino)benzoate] | fully protected OLs from cystine deprivation | significant increase in the number of healthy MSNs | statistically indistinguishable from both the YFP (no htt) control and the control inhibitor combination
